In US20220324965A1, “COMBINATION THERAPY INVOLVING ANTIBODIES AGAINST CLAUDIN 18.2 AND IMMUNE CHECKPOINT INHIBITORS FOR TREATMENT OF CANCER” (Astellas Pharma Inc., priority 2019, published 2022):

How the values were obtained:
Format in all cases: in vivo
[1] = tested on: CLS-103 LVT-murinCLDN18.2 syngeneic tumors; assay: Efficacy of IMAB362 plus anti-mPD-1 antibody in subcutaneous syngeneic gastric carcinoma model, endpoint day 14 (Example 1); conditions: female Crl:NMRI(Han) mice, n=12 per group, IMAB362 800 μg/mouse, anti-mPD-1 antibody 100 μg/mouse, intraperitoneal twice per week, vs Rituximab/isotype control group
Description: (§1) In order to determine whether a combination of an anti-CLDN18.2 antibody and an immune checkpoint inhibitor provides improved anti-tumor activity over the single agents alone in vivo, anti-tumor activity of IMAB362 in combination with an anti-mPD-1 antibody was examined in a subcutaneously transplanted syngeneic gastric carcinoma model in immunocompetent outbred Crl:NMRI(Han) mice using CLS-103 cells with lentiviral transduction of murine CLDN18.2 (CLS-103 LUT-murinCLDN18.2). Rituximab was used as an isotype control of IMAB362.
(§2) • Anti-CLDN18.2 antibody: IMAB362 (Astellas Pharma Inc.) • control antibody: Rituximab BS Intravenous Infusion [KHK] […]
(§3) Lentivirally transduced mouse CLDN18.2 expressing tumor cells (CLS-103 LVT-murinCLDN18.2) were engrafted subcutaneously into the right flank of female Crl:NMRI(Han) mice (10-week-old) at 2×10^6 cells/mouse. Mice were randomized based on tumor volume measured 2 days after engraftment into 4 groups (n=12 per group). […] Tumors were measured twice per week. […] Tumor volume was determined by length×width×width×0.5. Tumor growth inhibition (TGI[%]) of each group was calculated using the equation described below. […]

[2] = tested on: CLS-103 LVT-murinCLDN18.2 syngeneic tumors; assay: Efficacy of IMAB362 plus anti-mPD-L1 antibody in subcutaneous syngeneic gastric carcinoma model, endpoint day 14 (Example 4); conditions: n=12 per group, IMAB362 800 μg/mouse, anti-mPD-L1 antibody 300 μg/mouse, intraperitoneal twice per week, vs Rituximab/isotype control group
Description: as §1, with “improves” for “provides improved”, “anti-mPD-L1” for “anti-mPD-1”, “LVT-murinCLDN18.2).” for “LUT-murinCLDN18.2).”
as §2
as §3, with “(11-week-old)” for “(10-week-old)”, “(TGI [%]) or tumor regression rate (TRR [%])” for “(TGI[%])”, “equations” for “equation”

[3] = tested on: CLS-103 LVT-murinCLDN18.2 syngeneic tumors; assay: Long-term efficacy of IMAB362 plus anti-mPD-1 antibody in subcutaneous syngeneic gastric carcinoma model, up to day 28 (Example 2); conditions: IMAB362 800 μg/mouse, anti-mPD-1 antibody 100 μg/mouse, intraperitoneal twice per week
Description: as §1, with “improves” for “provides improved”, “vivo in long-term period,” for “vivo,”, “examined up to day 28” for “examined”, “LVT-murinCLDN18.2).” for “LUT-murinCLDN18.2).”
as §2
Lentivirally transduced mouse CLDN18.2 expressing tumor cells (CLS-103 LVT-murinCLDN18.2) were engrafted subcutaneously into the right flank of female Crl:NMRI(Han) mice (11-week-old) at 2×10^6 cells/mouse. Mice were randomized based on tumor volume measured 2 days after engraftment into 4 groups (n=12 per group). […] Tumors were measured twice per week. […] Tumor volume was determined by length×width×width×0.5. Mean tumor volume was calculated up to day 21 since 1 of 12 mice in the Rituximab/isotype treated group, as well as in the anti-mPD-1 antibody single agent group, was sacrificed due to tumor size being over 2000 mm^3. […] Complete regression (CR) was determined up to day 28 as the tumor volume of individual regressed to zero. […]

[4] = tested on: CLS-103 LVT-murinCLDN18.2 syngeneic tumors; assay: Efficacy of IMAB362 plus anti-mCTLA-4 antibody in subcutaneous syngeneic gastric carcinoma model, endpoint day 14 (Example 3); conditions: n=12 per group, IMAB362 800 μg/mouse, anti-mCTLA-4 antibody 300 μg/mouse, intraperitoneal twice per week, vs Rituximab/isotype control group
Description: as §1, with “improves” for “provides improved”, “anti-mCTLA-4” for “anti-mPD-1”, “LVT-murinCLDN18.2).” for “LUT-murinCLDN18.2).”
as §2
as §3, with “(11-week-old)” for “(10-week-old)”, “(TGI [%]) or tumor regression rate (TRR [%])” for “(TGI[%])”, “equations” for “equation”

Substance: IMAB362: chimeric IgG1 antibody directed against CLDN18.2; heavy chain SEQ ID NO: 51, light chain SEQ ID NO: 24
- Tumor growth inhibition (TGI) [1]: 50%
- Tumor growth inhibition (TGI) [2]: 60%
- Tumor growth inhibition (TGI) ([3]; day 21, n=12 per group, vs Rituximab/isotype control group): 40%
- number of mice with complete regression (CR) in the group of 12 mice ([3]; day 28, CR = tumor volume regressed to zero): 2
- Tumor growth inhibition (TGI) [4]: 72%
